Literature values, collected in patent US20050239864A1, “Novel tumor-selective chemotherapeutic agents” (priority 2004, published 2005).

Columns and labels:
HSA = HSA (Homo sapiens, UniProt P02768); details: exogenously added HSA; cited from earlier work
endogenous albumin = target: T1, endogenous albumin (Homo sapiens, UniProt P02768); details: human blood plasma; cited from earlier work
T1 construct: To determine the coupling rate and selectivity of Dox-MH for endogenous albumin, Dox-MH was incubated with human blood plasma; from tissue; host or cells: human blood plasma

[1] = system: mouse renal RENCA, human breast cancers MDA-MB 435 and MCF-7; details: three animal tumor models; cited from earlier work
[2] = system: MDA-MB 435 human breast cancer; details: cited from earlier work

T1 sequence (P02768 25-609): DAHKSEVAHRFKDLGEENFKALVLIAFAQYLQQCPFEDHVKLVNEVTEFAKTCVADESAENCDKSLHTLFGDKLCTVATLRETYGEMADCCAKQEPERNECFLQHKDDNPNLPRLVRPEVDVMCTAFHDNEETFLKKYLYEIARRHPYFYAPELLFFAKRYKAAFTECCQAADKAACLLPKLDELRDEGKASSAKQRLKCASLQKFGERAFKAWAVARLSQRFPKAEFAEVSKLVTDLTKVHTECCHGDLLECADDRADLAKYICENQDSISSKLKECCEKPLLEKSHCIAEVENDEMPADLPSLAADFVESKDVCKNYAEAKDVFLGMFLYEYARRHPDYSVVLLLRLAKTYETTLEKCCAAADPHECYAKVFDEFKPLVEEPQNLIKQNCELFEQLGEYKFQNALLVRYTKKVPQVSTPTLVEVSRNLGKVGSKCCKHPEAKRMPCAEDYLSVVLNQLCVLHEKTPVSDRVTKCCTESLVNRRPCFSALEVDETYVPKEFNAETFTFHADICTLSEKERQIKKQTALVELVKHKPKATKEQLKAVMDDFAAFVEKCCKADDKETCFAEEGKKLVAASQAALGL
Sequence of HSA (P02768 25-609): as above

COc1cccc2c1C(=O)c1c(O)c3c(c(O)c1C2=O)C[C@@](O)(/C(CO)=N/NC(=O)CCCCCN1C(=O)C=CC1=O)C[C@@H]3O[C@H]1C[C@H](N)[C@H](O)[C@H](C)O1 [Dox-MH]
time by which all had reacted with HSA (HSA): ≤ 90 min
time by which majority had reacted with HSA (HSA): ≤ 5 min
time after which reaction with HSA was almost complete (endogenous albumin): 2 min
time by which all had reacted (endogenous albumin): ≤ 90 min
antitumor efficacy and toxicity versus free doxorubicin [1]: distinctly superior to free doxorubicin
antitumor response ([2]; Dox-MH at optimal dose (3×23 mg/kg)): complete remissions were achieved
change in body weight ([2]; after 24 days of drug administration): did not produce an overall change in body weight
